Measured values reported in patent US8895581B2, “1H-imidazo[4,5-c]quinolines” (Boehringer Ingelheim International GmbH, priority 2010, dated 2014).

target: Recombinant human PDK1 enzyme (aa 52-556) (Homo sapiens (Human), UniProt O15530); experiment: PDK1 kinase assay; assay type: biochemical; settings: 25 μM ATP solution with gamma-P33-ATP, PDKtide substrate, 90 min at RT
Procedure: The activity of the compounds according to the invention on the kinase PDK1 which inhibits the signal transduction pathway is determined in an in vitro kinase assay with recombinantly prepared protein:
Recombinant human PDK1 enzyme (aa 52-556) linked at its N-terminal end to His6 is isolated from baculovirus-infected insect cells. Purified enzyme may be obtained for example from the University of Dundee, Scotland. The following components are combined in a well of a 96-well round-based dish (Greiner bio-one, No. 650101): • 1. 15 μL of compound to be tested in varying concentrations (e.g. starting at 10 μM, and diluted in steps of 1:5) in APT buffer (50 mM Tris/Cl pH7.5; 0.05% β-mercaptoethanol; 10 mM Mg-acetate; 0.0166% Tween 20; 3.33% DMSO) • 2. 15 μL His6-PDK1 (aa 52-556) 3.33 ng/well) and PDKtide (KTFCGTPEYLAPEVRRE […]), synthesised by Pepceuticals Limited, Nottingham, United Kingdom; 25 μM final concentration); His6-PDK1 and PDKtide are together diluted accordingly in assay buffer (50 mM tris pH 7.5, 0.05% β-mercaptoethanol, 10 mM Mg-acetate); PDKtide is present in this mixture as an 83.3 μM solution. These 30 μl are routinely incubated for 30 min at RT. • 3. 20 μL ATP solution (25 μM ATP with 1.0 μCi/well gamma-P33-ATP). The final concentration of Tween 20 is 0.005%.
The reaction is started by adding the ATP solution and the mixture is incubated for 90 min at RT. At the start of the reaction the dishes are shaken gently. The reaction is stopped by the addition of 50 μL/well of 500 mM phosphoric acid (H3PO4) and incubated for about 20 min at RT. The precipitate is transferred by harvesting onto filter plates (96-well microtitre filter plate: UniFilter GF/C; Perkin Elmer; No. 6005174), then washed 6 times with 50 mM H3PO4 and dried at 60° C. Then the plate is stuck down with sealing tape, 25 μL/well of scintillation solution (Microscint 0; Perkin Elmer; No. 6013611) are added and the amount of P33 precipitated is measured using the Wallac Betacounter. The measured data are evaluated using Graphpad Prism software.

Recombinant human PDK1 enzyme (aa 52-556), sequence (O15530 52-556): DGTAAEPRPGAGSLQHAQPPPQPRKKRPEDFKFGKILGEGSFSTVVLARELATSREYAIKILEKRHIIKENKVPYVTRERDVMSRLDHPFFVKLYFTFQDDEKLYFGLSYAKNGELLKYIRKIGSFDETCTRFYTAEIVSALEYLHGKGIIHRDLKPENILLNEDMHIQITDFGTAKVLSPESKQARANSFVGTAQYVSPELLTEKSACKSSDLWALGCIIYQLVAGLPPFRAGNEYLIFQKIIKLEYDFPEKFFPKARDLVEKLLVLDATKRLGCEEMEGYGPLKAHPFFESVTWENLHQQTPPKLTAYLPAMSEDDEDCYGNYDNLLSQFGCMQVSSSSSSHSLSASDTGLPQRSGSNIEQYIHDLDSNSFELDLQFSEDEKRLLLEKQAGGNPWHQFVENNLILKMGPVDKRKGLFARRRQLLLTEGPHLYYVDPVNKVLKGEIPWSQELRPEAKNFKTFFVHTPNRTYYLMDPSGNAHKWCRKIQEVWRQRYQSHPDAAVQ

IC50 [nM] | SMILES
4 | O=C(NCC#Cc1ccc2ncc3ncn(C4CCC4)c3c2c1)c1cncn(Cc2ccc(F)c(F)c2)c1=O [I-3]
26 | CN1CC[C@@H](n2cnc3cnc4ccc(C#CCNC(=O)c5cncn(Cc6ccc(F)c(F)c6)c5=O)cc4c32)C1 [I-6]
18 | CN1CC[C@H](n2cnc3cnc4ccc(C#CCNC(=O)c5cncn(Cc6ccc(F)c(F)c6)c5=O)cc4c32)C1 [I-7]
10 | CN1CCC[C@@H](n2cnc3cnc4ccc(C#CCNC(=O)c5cncn(Cc6ccc(F)c(F)c6)c5=O)cc4c32)C1 [I-9]
2 | CN1CCC(n2cnc3cnc4ccc(C#CCNC(=O)c5cncn(Cc6ccc(F)c(F)c6)c5=O)cc4c32)CC1 [I-10]
11 | CC(C)N1CCC(n2cnc3cnc4ccc(C#CCNC(=O)c5cncn(Cc6ccc(F)c(F)c6)c5=O)cc4c32)CC1 [I-11]
8 | O=C(NCC#Cc1ccc2ncc3ncn(C4CCNCC4)c3c2c1)c1cncn(Cc2ccc(F)c(F)c2)c1=O [I-14]
5 | Cc1nc2cnc3ccc(C#CCNC(=O)c4cc(Cl)nn(Cc5ccc(F)c(F)c5)c4=O)cc3c2n1C(C)C [II-4]
55 | Cc1nc2cnc3ccc(C#CCNC(=O)c4cccn([C@H](C)c5ccc(F)c(F)c5)c4=O)cc3c2n1C(C)C [II-7]
2 | Cc1nc2cnc3ccc(C#CCNC(=O)c4cccn([C@H](CO)c5ccc(F)c(F)c5)c4=O)cc3c2n1C(C)C [II-9]
2 | Cc1nc2cnc3ccc(C#CCNC(=O)c4cncn(Cc5ccc(F)c(F)c5)c4=O)cc3c2n1C(C)C [II-10]
5 | Cc1nc2cnc3ccc(C#CCNC(=O)c4c(C)n(C)n(Cc5ccc(F)c(F)c5)c4=O)cc3c2n1C(C)C [II-16]
1 | Cc1nc2cnc3ccc(C#CCNC(=O)c4cccn([C@@H](C)c5ccc(F)c(F)c5)c4=O)cc3c2n1C(C)C [II-17]
1 | COc1cc(C(=O)NCC#Cc2ccc3ncc4nc(C)n(C(C)C)c4c3c2)c(=O)n(Cc2ccc(F)c(F)c2)n1 [II-19]
2 | Cc1nc2cnc3ccc(C#CCNC(=O)c4cccn([C@@H](CN)c5ccc(F)c(F)c5)c4=O)cc3c2n1C(C)C [II-30]
8 | Cc1nc2cnc3ccc(C#CCNC(=O)c4cccn(Cc5ccc(F)c(F)c5)c4=O)cc3c2n1C1CCN(C(C)C)CC1 [II-31]
3 | Cc1nc2cnc3ccc(C#CCNC(=O)c4cccn([C@@H](C)c5ccc(F)c(F)c5)c4=O)cc3c2n1C1CCN(C(C)C)CC1 [II-32]
6 | Cc1nc2cnc3ccc(C#CCNC(=O)c4cccn(Cc5ccc(F)c(F)c5)c4=O)cc3c2n1C1CCN(C)CC1 [II-34]
7 | CC(C)N1CCC(n2cnc3cnc4ccc(C#CCNC(=O)c5cccn(Cc6ccc(F)c(F)c6)c5=O)cc4c32)CC1 [II-35]
2 | CC(C)N1CCC(n2cnc3cnc4ccc(C#CCNC(=O)c5cccn([C@@H](C)c6ccc(F)c(F)c6)c5=O)cc4c32)CC1 [III-2]
21 | Cc1nc2cnc3ccc(C#CCNC(=O)c4ccnn(Cc5ccc(F)c(F)c5)c4=O)cc3c2n1C1CCN(C(C)C)CC1 [III-4]

More lines, now with the values behind:

SMILES | IC50 [nM]
O=C(NCC#Cc1ccc2ncc3nc[nH]c3c2c1)c1cncn(Cc2ccc(F)c(F)c2)c1=O [I-1, 1-(3,4-difluoro-benzyl)-6-oxo-1,6-dihydro-pyrimidine-5-carboxylic acid [3-(1H-imidazo[4,5-c]quinolin-8-yl)-prop-2-ynyl]-amide] | 1
O=C(NCC#Cc1ccc2ncc3ncn(CCO)c3c2c1)c1cncn(Cc2ccc(F)c(F)c2)c1=O [I-2] | 4
O=C(NCC#Cc1ccc2ncc3ncn(CCCO)c3c2c1)c1cncn(Cc2ccc(F)c(F)c2)c1=O [I-4] | 2
CN(C)CCn1cnc2cnc3ccc(C#CCNC(=O)c4cncn(Cc5ccc(F)c(F)c5)c4=O)cc3c21 [I-5] | 50
CN(C)CCCn1cnc2cnc3ccc(C#CCNC(=O)c4cncn(Cc5ccc(F)c(F)c5)c4=O)cc3c21 [I-8] | 16
O=C(NCC#Cc1ccc2ncc3ncn([C@H]4CCCNC4)c3c2c1)c1cncn(Cc2ccc(F)c(F)c2)c1=O [I-12] | 9
O=C(NCC#Cc1ccc2ncc3ncn([C@@H]4CCNC4)c3c2c1)c1cncn(Cc2ccc(F)c(F)c2)c1=O [I-13] | 16
O=C(NCC#Cc1ccc2ncc3ncn([C@H]4CCNC4)c3c2c1)c1cncn(Cc2ccc(F)c(F)c2)c1=O [I-15] | 28
Cc1cc(C(=O)NCC#Cc2ccc3ncc4nc(C)n(C(C)C)c4c3c2)c(=O)n([C@H](C)c2ccc(F)c(F)c2)n1 [II-1] | 2
Cc1nc2cnc3ccc(C#CCNC(=O)c4cccn(Cc5ccccc5)c4=O)cc3c2n1C(C)C [II-2] | 8
Cc1nc2cnc3ccc(C#CCNC(=O)c4cccn(Cc5ccc(F)c(F)c5)c4=O)cc3c2n1C(C)C [II-3] | 2
CCOc1cc(C(=O)NCC#Cc2ccc3ncc4nc(C)n(C(C)C)c4c3c2)c(=O)n(Cc2ccc(F)c(F)c2)n1 [II-5] | 4
Cc1nc2cnc3ccc(C#CCNC(=O)c4cccn([C@H](CO)c5cccc(F)c5)c4=O)cc3c2n1C(C)C [II-6] | 1
Cc1nc2cnc3ccc(C#CCNC(=O)c4cccn([C@H](C)C5CCCCC5)c4=O)cc3c2n1C(C)C [II-8] | 507
Cc1cc(C(=O)NCC#Cc2ccc3ncc4nc(C)n(C(C)C)c4c3c2)c(=O)n([C@@H](C)c2ccc(F)c(F)c2)n1 [II-11] | 70
CCc1c(C(=O)NCC#Cc2ccc3ncc4nc(C)n(C(C)C)c4c3c2)c(=O)n(Cc2ccc(F)c(F)c2)n1C [II-12] | 5
Cc1nc2cnc3ccc(C#CCNC(=O)c4cccn([C@@H](C)C5CCCCC5)c4=O)cc3c2n1C(C)C [II-14] | 34
Cc1nc2cnc3ccc(C#CCNC(=O)c4c(C)n(C)n(C(C)c5ccc(F)c(F)c5)c4=O)cc3c2n1C(C)C (stereo not drawn) [II-15] | 5
Cc1nc2cnc3ccc(C#CCNC(=O)c4cccn(CC5CCCCC5)c4=O)cc3c2n1C(C)C [II-18] | 14
Cc1nc2cnc3ccc(C#CCNC(=O)c4cccn([C@@H](CO)c5ccccc5)c4=O)cc3c2n1C(C)C [II-21] | 2
Cc1nc2cnc3ccc(C#CCNC(=O)c4cccn([C@@H](CN)c5ccccc5)c4=O)cc3c2n1C(C)C [II-22] | 16
Cc1nc2cnc3ccc(C#CCNC(=O)c4cccn(CC5C[C@@H]6CC[C@H]5C6)c4=O)cc3c2n1C(C)C (stereo partly drawn) [II-23] | 15
Cc1nc2cnc3ccc(C#CCNC(=O)c4cccn(CC5CCOCC5)c4=O)cc3c2n1C(C)C [II-24] | 590
Cc1nc2cnc3ccc(C#CCNC(=O)c4cccn(CC5CCCCO5)c4=O)cc3c2n1C(C)C (stereo not drawn) [II-25] | 1020
Cc1nc2cnc3ccc(C#CCNC(=O)c4cccn(CC5CCCC5)c4=O)cc3c2n1C(C)C [II-26] | 27
Cc1nc2cnc3ccc(C#CCNC(=O)c4cccn(CC5(O)CCCCC5)c4=O)cc3c2n1C(C)C [II-27] | 1100
Cc1nc2cnc3ccc(C#CCNC(=O)c4cccn(C[C@H]5CCCC[C@H]5O)c4=O)cc3c2n1C(C)C [II-28] | 221
Cc1nc2cnc3ccc(C#CCNC(=O)c4cccn(CC5CCCOC5)c4=O)cc3c2n1C(C)C (stereo not drawn) [II-29] | 202
O=C(NCC#Cc1ccc2ncc3ncn([C@@H]4CCNC4)c3c2c1)c1cccn([C@H](CO)c2ccccc2)c1=O [III-1] | 18
Cc1cc(C(=O)NCC#Cc2ccc3ncc4ncn([C@H]5CC[C@@H](N(C)C)CC5)c4c3c2)c(=O)n(Cc2ccc(F)c(F)c2)n1 [III-3] | 15
